Laboratory results as given in patent US20120138290A1, “METHODS TO STIMULATE BIOGENIC METHANE PRODUCTION FROM HYDROCARBON-BEARING FORMATIONS” (SYNTHETIC GENOMICS, INC., priority 2010, published 2012).
Several values for one entry are separate records, joined by “and”; a condition that tells them apart may be missing. Identical values can stand only once.

Experiments:
[1] = test system: functional microbial subcommunity (inoculum 2L-245 from upflow reactor); assay: Stimulation of methane production: batch cultures with additive/stimulant, with or without coal, headspace methane by gas chromatography; type: cell-based
Method: The availability of an inoculum of a functional microbial subcommunity capable of producing methane from coal in vitro prompted laboratory experiments where various stimulants were tested for their effect on methane production. […] The experiments were conducted at three different levels of additives (0.5×, 1× and 2×): additives (stimulants) were added in the following three concentrations. […] DMY media: DM media composition in milli-Q water is made as described above with the addition of 0.5 g/L yeast extract. DMSC media: DM media in milli-Q water is made as described above with the addition of 100 g/L sterile, anaerobic, sub-bituminous coal from the San Juan Basin. DMSCY media: DM media in milli-Q water is made as described above with the addition of 100 g/L sterile, anaerobic, sub-bituminous coal from the San Juan Basin and 0.5 g/L yeast extract. The coal used in these experiments originated from the San Juan Basin (BHP Billiton, Tex.). […] Each stimulant was tested in the presence or absence of coal. The experiments were conducted at three different concentrations of additives (0.5× (low), 1× (medium), and 2× (high)) as described above. Each sample type was conducted in 4 replicates. […] Control sample types were media alone, media plus coal, media plus yeast extract and media plus coal and yeast extract. At each time point, headspace measurements were taken using gas chromatography (microGC […], Agilent Technologies, Inc.). […] Each experiment was performed in quadruplicate. Methane at time 0 was assumed to be 0%.

[2] = test system: formate-utilizing, methane-producing species in the enrichment culture; assay: Stimulation of methane production by vanadium in cultures utilizing formate; type: cell-based; details: for Methane (% in head space volume of 21 ml): DM media with 50 mM formate, 48 hours at 50° C., replicate cultures
Method: The anaerobic reactor system described above in Example 1 contains formate-utilizing, methane-producing species in the enrichment culture. Methanogens in the culture were previously identified by 16sRNA sequencing.
A 10% vol./vol. inoculum was taken from the anaerobic reactor system described above in Example 1, and the effect of vanadium on methane production by methanogens utilizing formate as a carbon and energy source was determined.
Cultures, established with DM media (prepared as described above) containing 50 mM formate as the sole carbon and energy source, were sub-cultured with the same media (in the absence of vanadium) or media supplemented with either 5 or 10 μM VCl3. Methane production was measured after 48 hours of growth at 50° C.

[3] = DMSCY (coal), 125 μM Na2SO3, week 1
[4] = DMSCY (coal), 125 μM Na2SO3, week 3
[5] = DMSCY (coal), 125 μM Na2SO3, week 5
[6] = DMSCY (coal), 250 μM Na2SO3, week 1
[7] = DMSCY (coal), 250 μM Na2SO3, week 3
[8] = DMSCY (coal), 250 μM Na2SO3, week 5
[9] = DMSCY (coal), 500 μM Na2SO3, week 1
[10] = DMSCY (coal), 500 μM Na2SO3, week 3
[11] = DMSCY (coal), 500 μM Na2SO3, week 5
[12] = DMY (no coal), 125 μM Na2SO3, week 1
[13] = DMY (no coal), 125 μM Na2SO3, week 3
[14] = DMY (no coal), 125 μM Na2SO3, week 5
[15] = DMY (no coal), 250 μM Na2SO3, week 1
[16] = DMY (no coal), 250 μM Na2SO3, week 3
[17] = DMY (no coal), 250 μM Na2SO3, week 5
[18] = DMY (no coal), 500 μM Na2SO3, week 1
[19] = DMY (no coal), 500 μM Na2SO3, week 3
[20] = DMY (no coal), 500 μM Na2SO3, week 5
[21] = DMSCY (coal), 5 μM VCl3, week 1
[22] = DMSCY (coal), 5 μM VCl3, week 3
[23] = DMSCY (coal), 5 μM VCl3, week 5
[24] = DMSCY (coal), 10 μM VCl3, week 1
[25] = DMSCY (coal), 10 μM VCl3, week 3
[26] = DMSCY (coal), 10 μM VCl3, week 5
[27] = DMY (no coal), 5 μM VCl3, week 1
[28] = DMY (no coal), 5 μM VCl3, week 3
[29] = DMY (no coal), 5 μM VCl3, week 5
[30] = DMY (no coal), 10 μM VCl3, week 1
[31] = DMY (no coal), 10 μM VCl3, week 3
[32] = DMY (no coal), 10 μM VCl3, week 5
[33] = DMSCY (coal), 5.0 μM MnCl2, week 3
[34] = DMSCY (coal), 5.0 μM MnCl2, week 5
[35] = DMSCY (coal), 10 μM MnCl2, week 1
[36] = DMSCY (coal), 10 μM MnCl2, week 3
[37] = DMSCY (coal), 10 μM MnCl2, week 5
[38] = DMY (no coal), 5.0 μM MnCl2, week 1
[39] = DMY (no coal), 5.0 μM MnCl2, week 3
[40] = DMY (no coal), 5.0 μM MnCl2, week 5
[41] = DMY (no coal), 10 μM MnCl2, week 1
[42] = DMY (no coal), 10 μM MnCl2, week 3
[43] = DMY (no coal), 10 μM MnCl2, week 5

Molecule: O=S([O-])[O-].[Na+].[Na+] [Na2SO3, sodium sulfite]
- methane production (Average) [1, 3]: 0.27
- methane production (RepA-Rep D) [1, 3]: 0.26 and 0.24 and 0.25 and 0.32
- methane production (Average) [1, 4]: 1.02
- methane production (RepA-Rep D) [1, 4]: 1.04 and 0.97 and 0.99 and 1.06
- methane production (Average) [1, 5]: 1.25
- methane production (RepA-Rep D) [1, 5]: 1.21 and 1.22 and 1.25 and 1.31
- methane production (Average) [1, 6]: 20
- methane production (RepA-Rep D) [1, 6]: 0.23 and 0.18 and 0.19 and 0.20
- methane production (Average) [1, 7]: 1.07
- methane production (RepA-Rep D) [1, 7]: 1.04 and 1.02 and 1.06 and 1.18
- methane production (Average) [1, 8]: 1.42
- methane production (RepA-Rep D) [1, 8]: 1.26 and 1.24 and 1.45 and 1.74
- methane production (Average) [1, 9]: 0.14
- methane production (RepA-Rep D) [1, 9]: 0.14 and 0.13 and 0.15
- methane production (Average) [1, 10]: 1.04
- methane production (RepA-Rep D) [1, 10]: 1.01 and 0.98 and 1.07 and 1.04
- methane production (Average) [1, 11]: 1.35
- methane production (RepA-Rep D) [1, 11]: 1.34 and 1.26 and 1.37 and 1.41
- methane production (Average) [1, 12]: 0.21
- methane production (RepA-Rep D) [1, 12]: 0.20 and 0.21 and 0.22
- methane production (Average) [1, 13]: 0.71
- methane production (RepA-Rep D) [1, 13]: 0.71 and 0.68 and 0.69 and 0.75
- methane production (Average) [1, 14]: 0.68
- methane production (RepA-Rep D) [1, 14]: 0.66 and 0.69 and 0.71
- methane production (Average) [1, 15]: 0.14
- methane production (RepA-Rep D) [1, 15]: 0.14 and 0.15 and 0.13
- methane production (Average) [1, 16]: 0.67
- methane production (RepA-Rep D) [1, 16]: 0.67 and 0.63 and 0.65 and 0.72
- methane production (Average) [1, 17]: 0.62
- methane production (RepA-Rep D) [1, 17]: 0.62 and 0.59 and 0.65
- methane production (Average) [1, 18]: 0.09
- methane production (RepA-Rep D) [1, 18]: 0.09 and 0.08 and 0.10
- methane production (Average) [1, 19]: 0.68
- methane production (RepA-Rep D) [1, 19]: 0.71 and 0.64 and 0.74
- methane production (Average) [1, 20]: 0.74
- methane production (RepA-Rep D) [1, 20]: 0.83 and 0.68 and 0.76

Molecule: [Cl-].[Cl-].[Cl-].[V+3] [VCl3, vanadium (III) chloride]
- methane production (Average) [1, 21]: 0.27
- methane production (RepA-Rep D) [1, 21]: 0.30 and 0.26 and 0.25
- methane production (Average) [1, 22]: 1.50
- methane production (RepA-Rep D) [1, 22]: 1.51 and 1.40 and 1.21 and 1.88
- methane production (Average) [1, 23]: 2.44
- methane production (RepA-Rep D) [1, 23]: 2.41 and 2.28 and 1.95 and 3.13
- methane production (Average) [1, 24]: 0.25
- methane production (RepA-Rep D) [1, 24]: 0.29 and 0.25 and 0.24
- methane production (Average) [1, 25]: 1.06
- methane production (RepA-Rep D) [1, 25]: 1.15 and 1.04 and 1.01
- methane production (Average) [1, 26]: 1.36
- methane production (RepA-Rep D) [1, 26]: 1.49 and 1.31 and 1.30 and 1.33
- methane production (Average) [1, 27]: 0.20
- methane production (RepA-Rep D) [1, 27]: 0.21 and 0.20
- methane production (Average) [1, 28]: 0.71
- methane production (RepA-Rep D) [1, 28]: 0.78 and 0.69 and 0.67 and 0.80
- methane production (Average) [1, 29]: 0.70
- methane production (RepA-Rep D) [1, 29]: 0.75 and 0.70 and 0.68 and 0.67
- methane production (Average) [1, 30]: 0.22
- methane production (RepA-Rep D) [1, 30]: 0.21 and 0.251 and 0.19 and 0.22
- methane production (Average) [1, 31]: 0.77
- methane production (RepA-Rep D) [1, 31]: 0.85 and 0.7495 and 0.70 and 0.78
- methane production (Average) [1, 32]: 0.76
- methane production (RepA-Rep D) [1, 32]: 0.76 and 0.82 and 0.70 and 0.77
- effect on the production of methane ([1]; intermediate concentration of the stimulant (FIGS. 1A, 1B, 2A)): statistically significant positive effect
- dependence of methane production on coal ([1]; with or without coal): only observed in the presence of coal
- Methane (% in head space volume of 21 ml) ([2]; 5 μM VCl3 final): 2.0% and 1.2%
- Methane (% in head space volume of 21 ml) ([2]; 10 μM VCl3 final): 1.9% and 1.4%
- methane formation relative to cultures without VCl3 (average) ([2]; VCl3-supplemented cultures (5 or 10 μM), 50 mM formate, 48 hours): approximately 2 fold

Molecule: manganese chloride [MnCl2]
- methane production (Average) ([1]; DMSCY (coal), 5.0 μM MnCl2, week 1): 0.44
- methane production (Average) [1, 33]: 1.56
- methane production (RepA-Rep D) [1, 33]: 1.51 and 1.55 and 1.53 and 1.64
- methane production (Average) [1, 34]: 1.82
- methane production (RepA-Rep D) [1, 34]: 1.94 and 1.81 and 1.70 and 1.85
- methane production (Average) [1, 35]: 0.42
- methane production (RepA-Rep D) [1, 35]: 0.44 and 0.41 and 0.43
- methane production (Average) [1, 36]: 1.46
- methane production (RepA-Rep D) [1, 36]: 1.45 and 1.49 and 1.43 and 1.48
- methane production (Average) [1, 37]: 1.72
- methane production (RepA-Rep D) [1, 37]: 1.63 and 1.82 and 1.71 and 1.70
- methane production (Average) [1, 38]: 0.34
- methane production (RepA-Rep D) [1, 38]: 0.34 and 0.33 and 0.36
- methane production (Average) [1, 39]: 0.92
- methane production (RepA-Rep D) [1, 39]: 0.92 and 0.90 and 0.94
- methane production (Average) [1, 40]: 0.87
- methane production (RepA-Rep D) [1, 40]: 0.89 and 0.86 and 0.85 and 0.88
- methane production (Average) [1, 41]: 0.36
- methane production (RepA-Rep D) [1, 41]: 0.39 and 0.38 and 0.35
- methane production (Average) [1, 42]: 1.02
- methane production (RepA-Rep D) [1, 42]: 1.00 and 1.05 and 1.04 and 1.01
- methane production (Average) [1, 43]: 0.97
- methane production (RepA-Rep D) [1, 43]: 0.89 and 1.03 and 0.96 and 1.01
